Source: US20180169047A1, “AMINO ACID COMPOSITIONS AND METHODS FOR THE TREATMENT OF MUSCLE DISEASES AND DISORDERS” (AXCELLA HEALTH INC., priority 2016, published 2018)

Tests used:
C2C12 myotubes = assay: Myotube growth assay: myotube area in C2C12 myotubes; format: cell-based, murine; design: key to GROWTH: statistically significant assay result: statistically significant assay results between 2X and 5X doses; ns - not significant; NT - not tested; conditions: for myotube growth dose response, Avg myotube area normalized to nuclear count: untreated = 1.000; for GROWTH: statistically significant assay result: between 2X and 5X doses, compared to untreated control
Description: Myotubes are multi-nucleated and elongated cells that express master regulators of skeletal muscle gene expression including MyoD and Myogenin. Myotubes are formed by differentiating myoblasts (muscle progenitor cells) for approximately 1 week. Once formed, myotubes size can be promoted (e.g. insulin) or inhibited (e.g. myostatin) with various molecules in order to assess effects on muscle size in vitro. C2C12 cells are commonly-used murine myogenic cells that upon differentiation form myotubes. C2C12 myotubes were used to test whether specific amino acid compositions can promote growth in vitro.
C2C12 murine myoblast cells (ATCC CRL-1772) were seeded on day 0 at 1.0E4 cells per well in collagen I coated 96-well optical polymer microplates (ThermoFisher) in Dulbecco's Modified Eagle Medium (DMEM, Corning) supplemented with 10% heat inactivated fetal bovine serum (HI-FBS, Atlanta Biologicals) and 0.2% Primocin (InVivoGen) and incubated overnight at 37° C., 5% CO2. On day 1, media was washed and differentiation media (DMEM supplemented with 2% horse serum) was added to the cells and fresh differentiation media was also applied on Day 3. On Day 6, cells were washed with amino acid-free DMEM and then treated with basal growth media containing 0.2% dialyzed FBS and all amino acids at 0.25× concentrations found in plasma based on values reported in the Human Metabolome Database (HMDB).
Fresh growth media and AA treatments were applied a second time on Day 8. On day 10, media was removed and cells were incubated in pre-warmed 4% Paraformaldehyde in PBS for 12 mins at room temperature and then washed 3× in PBS. Immunostaining with MHC (MF-20, University of Iowa Developmental Hybridoma Studies bank) was performed according to cell signaling general immunofluorescence protocol. Briefly, fixed cells were incubated in blocking buffer (5% normal goat serum 0.3% triton PBS) for 30-60 minutes, and then incubated overnight at 4° C. in primary antibody 1:1000 in antibody dilution buffer (1% BSA 0.3% triton in PBS). The next day the plate was equilibrated to room temperature, washed 3 times for 5 minutes in room temperature PBS and then with secondary antibody (Fab′ anti-mouse Alexa488, 1:2000) in antibody dilution buffer for 1-2 hours. Cells were washed 2 times for 5 minutes, incubated in Hoechst stain (Mol Probes 1:4000) for 10 minutes at room temperature, and washed an additional 2 times five minutes each in PBS. Molecular device HCS was used for image acquisition and analysis. Imaging was performed with a 10× wide field objective at both GFP and UV channels (FITC and DAPI) and analysis was performed using a modified version of the angiogenesis module in the MetaExpress Software measuring average total myotube area, myotube breadth, total nuclear counts, fused nuclear counts, and unfused nuclear counts.

mTORC1 = mTORC1 activity assay: rpS6 phosphorylation (AlphaScreen SureFire) in C2C12 myotubes; format: cell-based, mouse; design: key to mTOR: statistically significant assay result: statistically significant assay results between 2X and 5X doses; ns - not significant; NT - not tested; conditions: for Avg fold change of intracellular rpS6 phosphorylation (P-rpS6) compared to untreated cells: C2C12 myotubes, 30 min, normalized to total protein; for mTOR: statistically significant assay result: between 2X and 5X doses, compared to untreated control
Description: Metabolism is controlled by the mTORC1 signaling complex, an essential protein kinase that regulates cellular processes such as protein synthesis and autophagy. A number of distinct signals control mTORC1 activity, including amino acids and growth factors like insulin, and proper regulation is necessary for the maintenance of muscle mass. Dysregulation of mTORC1 activity is associated with muscle wasting (atrophy) in many diseases, and conversely, addition of muscle mass (hypertrophy) requires protein synthesis-inducing mTORC1 signaling. The ability of different amino acids to induce mTORC1 signaling in myotubes was assessed using an alpha-elisa screen for phosphorylated ribosomal protein S6 (P-rpS6), an important substrate downstream of mTORC1 involved in promoting protein synthesis.
In this example, murine muscle cells were incubated with a composition including amino acids and assessed for mTORC1 activation. C2C12, mouse muscle cells, were obtained from ATCC (CRL-1772, Manassas, VA). The cells were seeded on day 0 at 1.0E4 cells per well in 96-well TC-treated microplates (Corning, Corning, NY) in Dulbecco's Modified Eagle Medium (DMEM, Corning) supplemented with 10% fetal bovine serum (Corning) and 0.2% Primocin (InVivoGen, San Diego, Calif.) and incubated for 48 hours at 37° C., 5% CO2. On day 2, the medium was changed to DMEM (Corning) supplemented with 2% horse serum (Horse Serum, New Zealand origin, ThermoFisher, Waltham, MA) and 0.2% Primocin. On day 5, the medium was replaced with fresh DMEM supplemented with 2% horse serum and 0.2% Primocin.
On day 7, the DMEM supplemented with 2% horse serum and 0.2% Primocin was replaced with amino acid free DMEM (US Biologicals, Salem, Mass.) containing a defined custom amino acid concentration based on 0.5× the mean physiological concentrations in blood based on values published in the Human Metabolome Database (HMDB (Wishart DS, Tzur D, Knox C, et al., HMDB: the Human Metabolome Database. Nucleic Acids Res. 2007 January; 35 (Database issue):D521-6. 17202168), with 25 mM Glucose, 1 mM Sodium Pyruvate and incubated for 2 hours at 37° C., 5% CO2. Next, the cell medium was replaced with amino acid free DMEM (US Biologicals, Salem, Mass.) containing a defined custom amino acid concentration based on 0.5× the mean physiological concentrations in blood based on values published in the HMDB and a dose curve of defined amino acid compositions listed in Table 5 at 4 doses relative to plasma levels (1×, 2×, 5× and 10×; as defined by mean amino acid concentrations in the HMDB database). Combinations containing N-acetylcysteine were dosed with 0.2 mM. Cells were treated for 30 min at 37° C., 5% CO2. After treatment, the cells were washed lx in 100uL cold phosphate-buffered saline 1×, pH 7.2 (PBS, ThermoFisher). For the detection of the intracellular rpS6 phosphorylation, the AlphaScreen SureFire cellular kinase assay kit (rpS6 ([…]) and the AlphaScreen protein A kit (PerkinElmer, Waltham, Mass.) were used.
Data are presented as fold change of intracellular rpS6 phosphorylation in C2C12 myotubes normalized to the total protein amount compared to untreated cells. […] Statistical significance was determined by one-way ANOVA for each composition dose relative to untreated.

[1] = system: C2C12 murine myoblast cells; assay: Myogenesis assay: myotube differentiation of C2C12 myoblasts, MHC immunostaining; format: cell-based; design: key to MYOGENESIS: statistically significant assay result: statistically significant assay results between 2X and 5X doses; ns - not significant; NT - not tested; conditions: for myogenesis dose response, Avg fold-change to untreated: C2C12 myoblasts differentiated 4 days
Description: Myogenesis is the process of forming skeletal muscle fibers (myofibers) which contain the minimal contractile units (sarcomeres) responsible for force transduction and load bearing in higher eukaryotes. During development single nucleated myogenic cells fuse, differentiate, and induce expression of the cytoskeletal complexes required for muscle contraction. A highly similar process is induced in response to muscle injury where satellite cells, or skeletal muscle stem cells, are activated, differentiate and fuse with damaged myofibers, thereby contributing myonuclei and supporting muscle repair. C2C12 cells are murine myogenic cells that, upon differentiation, fuse to form multi-nucleated myotubes (primitive myofibers) that express master regulators of muscle-specific gene expression, for example myosin heavy chain, a critical component of sarcomeres. C2C12 cells were selected as a model of myogenesis and used to test whether specific amino acid compositions would promote formation of myotubes and expression of the myotube-specific marker myosin heavy chain.
C2C12 murine myoblast cells were obtained from ATCC (CRL-1772) and seeded on day 0 at 1.0E4 cells per well in collagen I coated 96-well optical polymer microplates (ThermoFisher) in Dulbecco's Modified Eagle Medium (DMEM, Corning) supplemented with 10% heat inactivated fetal bovine serum (HI-FBS, Atlanta Biologicals) and 0.2% Primocin (InVivoGen) and incubated overnight at 37° C., 5% CO2. […] Cells were differentiated for 4 days at 37° C., 5% CO2 with a media replenishment and an additional amino acid composition or control treatment on Day 3. On day 5, the media was removed and cells were incubated in pre-warmed 4% Paraformaldehyde in PBS for 12 mins at room temperature and then washed 3× in PBS.
Immunostaining with MHC (MF-20, University of Iowa Developmental Hybridoma Studies bank) was performed according to cell signaling general immunofluorescence protocol. Briefly, fixed cells were incubated in blocking buffer (5% normal goat serum 0.3% triton PBS) for 30 to 60 minutes, and then incubated overnight at 4° C. in primary antibody 1:1000 in antibody dilution buffer (1% BSA 0.3% triton in PBS). The next day the plate was equilibrated to room temperature, washed 3 times for 5 minutes in room temperature PBS and then with secondary antibody (Fab' anti-mouse Alexa488, 1:2000) in antibody dilution buffer for 1-2 hours. Cells were washed two times for 5 minutes, incubated in Hoechst stain (Mol Probes 1:4000) for 10 minutes at room temperature, and washed an additional two times for five minutes each in PBS. Molecular device HCS was used for image acquisition and analysis. Imaging was performed with a 10× wide field objective at both GFP and UV channels (FITC and DAPI) and analysis was performed using a custom module in the MetaExpress Software measuring average FITC intensity, integrated FITC intensity, and nuclear counts.
The data is the average of 3 independent experiments.

[2] = C2C12 myotubes, dose 1.25X relative to plasma levels
[3] = C2C12 myotubes, dose 2.5X relative to plasma levels
[4] = C2C12 myotubes, dose 5X relative to plasma levels
[5] = C2C12 myotubes, dose 10X relative to plasma levels
[6] = dose 1X relative to plasma levels
[7] = dose 2X relative to plasma levels
[8] = dose 5X relative to plasma levels
[9] = dose 10X relative to plasma levels

Compound	myotube growth dose response, Avg myotube area normalized to nuclear count (C2C12 myotubes; [2])	myotube growth dose response, Avg myotube area normalized to nuclear count (C2C12 myotubes; [3])	myotube growth dose response, Avg myotube area normalized to nuclear count (C2C12 myotubes; [4])	myotube growth dose response, Avg myotube area normalized to nuclear count (C2C12 myotubes; [5])	GROWTH: statistically significant assay result (C2C12 myotubes)	Avg fold change of intracellular rpS6 phosphorylation (P-rpS6) compared to untreated cells (mTORC1; [6])	Avg fold change of intracellular rpS6 phosphorylation (P-rpS6) compared to untreated cells (mTORC1; [7])	Avg fold change of intracellular rpS6 phosphorylation (P-rpS6) compared to untreated cells (mTORC1; [8])	Avg fold change of intracellular rpS6 phosphorylation (P-rpS6) compared to untreated cells (mTORC1; [9])	mTOR: statistically significant assay result (mTORC1)	area of myotubes in the culture well (in words) (C2C12 myotubes; C2C12 myotubes, across two experiments)	myogenesis dose response, Avg fold-change to untreated ([1]; dose 1.25X relative to HMDB plasma levels)	myogenesis dose response, Avg fold-change to untreated ([1]; dose 2.5X relative to HMDB plasma levels)	myogenesis dose response, Avg fold-change to untreated ([1]; dose 5X relative to HMDB plasma levels)	myogenesis dose response, Avg fold-change to untreated ([1]; dose 10X relative to HMDB plasma levels)	MYOGENESIS: statistically significant assay result ([1]; between 2X and 5X doses, compared to untreated control)
CC(=O)N[C@@H](CS)C(=O)O [Nac, N-acetylcysteine]	1.121	1.036	1.153	1.267	ns	0.9198 fold change	0.8626 fold change	0.8741 fold change	0.9485 fold change	ns	–	–	–	–	–	–
NC(=O)CC[C@H](N)C(=O)O [Q, glutamine]	1.235	1.202	1.075	1.077	ns	1.052 fold change	0.9176 fold change	0.8748 fold change	0.8139 fold change	ns	no effect or were inhibitory	1.127 fold-change	1.066 fold-change	1.087 fold-change	1.041 fold-change	ns
